From the NIST ThermoML archive (doi:10.1016/j.jct.2004.06.009)

Experiment: molar heat capacity at constant pressure
Conditions: 101.33 kPa

CCC12CC3CC(CC(C3)C1)C2 [1-ethyladamantane]
Conditions | molar heat capacity at constant pressure [J/K/mol]
8.03 K, Crystal | 1.395
8.87 K, Crystal | 1.961
9.72 K, Crystal | 2.621
10.57 K, Crystal | 3.39
11.44 K, Crystal | 4.278
12.32 K, Crystal | 5.225
13.21 K, Crystal | 6.255
14.1 K, Crystal | 7.376
14.99 K, Crystal | 8.556
15.9 K, Crystal | 9.727
16.8 K, Crystal | 10.96
17.71 K, Crystal | 12.22
18.62 K, Crystal | 13.48
19.54 K, Crystal | 14.72
20.54 K, Crystal | 16.13
21.56 K, Crystal | 17.52
22.59 K, Crystal | 18.89
23.61 K, Crystal | 20.32
24.63 K, Crystal | 21.67
26.68 K, Crystal | 24.2
27.71 K, Crystal | 25.4
28.74 K, Crystal | 26.62
29.76 K, Crystal | 27.84
30.79 K, Crystal | 29.12
32.85 K, Crystal | 31.29
33.87 K, Crystal | 32.44
34.9 K, Crystal | 33.5
35.93 K, Crystal | 34.39
37.98 K, Crystal | 36.32
39.01 K, Crystal | 37.21
40.03 K, Crystal | 38.15
41.06 K, Crystal | 39
42.08 K, Crystal | 39.94
43.1 K, Crystal | 40.64
44.12 K, Crystal | 41.41
45.14 K, Crystal | 42.16
46.16 K, Crystal | 42.91
47.18 K, Crystal | 43.59
48.2 K, Crystal | 44.12
49.22 K, Crystal | 44.8
50.23 K, Crystal | 45.53
51.25 K, Crystal | 46
52.26 K, Crystal | 46.77
53.27 K, Crystal | 47.66
54.29 K, Crystal | 48.36
55.3 K, Crystal | 49.16
56.32 K, Crystal | 50.02
57.33 K, Crystal | 50.66
60.8 K, Crystal | 53.31
62.77 K, Crystal | 54.44
64.71 K, Crystal | 55.94
65.75 K, Crystal | 56.4
66.79 K, Crystal | 57.48
67.84 K, Crystal | 57.62
68.88 K, Crystal | 58.33
69.92 K, Crystal | 59.01
70.96 K, Crystal | 59.56
72 K, Crystal | 60.08
73.04 K, Crystal | 60.85
74.08 K, Crystal | 61.29
75.11 K, Crystal | 62.33
76.15 K, Crystal | 62.98
77.19 K, Crystal | 63.42
78.22 K, Crystal | 64.33
79.25 K, Crystal | 64.56
80.28 K, Crystal | 65.4
81.31 K, Crystal | 66.12
81.85 K, Crystal | 65.93
82.34 K, Crystal | 66.67
82.88 K, Crystal | 66.84
83.37 K, Crystal | 67.23
83.91 K, Crystal | 67.62
84.26 K, Crystal | 67.63
84.94 K, Crystal | 68.15
85.59 K, Crystal | 68.6
85.97 K, Crystal | 68.8
86.66 K, Crystal | 69.39
87 K, Crystal | 69.66
87.74 K, Crystal | 70.12
88.82 K, Crystal | 70.92
89.89 K, Crystal | 71.56
90.96 K, Crystal | 72.22
92.04 K, Crystal | 72.9
93.11 K, Crystal | 73.4
94.18 K, Crystal | 73.82
95.25 K, Crystal | 75.04
96.32 K, Crystal | 75.51
97.39 K, Crystal | 76.24
98.46 K, Crystal | 76.81
99.54 K, Crystal | 77.83
100.87 K, Crystal | 78.38
102.46 K, Crystal | 79.35
104.05 K, Crystal | 80.35
105.64 K, Crystal | 81.43
107.23 K, Crystal | 82.56
108.82 K, Crystal | 83.52
110.4 K, Crystal | 84.71
111.99 K, Crystal | 85.66
113.57 K, Crystal | 86.76
115.16 K, Crystal | 87.63
116.73 K, Crystal | 88.67
118.31 K, Crystal | 89.74
119.89 K, Crystal | 90.68
121.47 K, Crystal | 91.9
123.04 K, Crystal | 92.76
124.62 K, Crystal | 93.94
126.2 K, Crystal | 94.87
127.77 K, Crystal | 96.09
129.34 K, Crystal | 97.09
130.92 K, Crystal | 97.98
132.49 K, Crystal | 99.07
134.06 K, Crystal | 100.25
135.63 K, Crystal | 101.16
137.2 K, Crystal | 102.25
138.77 K, Crystal | 103.19
140.34 K, Crystal | 104.1
141.9 K, Crystal | 105.44
143.46 K, Crystal | 106.52
145.03 K, Crystal | 107.47
146.59 K, Crystal | 108.5
148.16 K, Crystal | 109.54
149.72 K, Crystal | 110.66
151.28 K, Crystal | 111.92
152.83 K, Crystal | 112.8
154.39 K, Crystal | 113.97
155.94 K, Crystal | 114.98
157.5 K, Crystal | 116.23
159.05 K, Crystal | 117.17
160.6 K, Crystal | 118.16
162.16 K, Crystal | 119.21
163.71 K, Crystal | 120.38
165.26 K, Crystal | 121.36
166.82 K, Crystal | 122.47
168.37 K, Crystal | 123.67
169.92 K, Crystal | 124.78
171.47 K, Crystal | 125.84
173.02 K, Crystal | 126.95
174.57 K, Crystal | 128.01
176.11 K, Crystal | 129.2
177.66 K, Crystal | 130.08
179.2 K, Crystal | 131.06
180.74 K, Crystal | 132.22
182.28 K, Crystal | 133.41
183.82 K, Crystal | 134.59
185.36 K, Crystal | 135.72
186.9 K, Crystal | 136.96
188.44 K, Crystal | 138.08
189.98 K, Crystal | 139.07
191.52 K, Crystal | 140.27
193.06 K, Crystal | 141.34
194.59 K, Crystal | 142.65
196.12 K, Crystal | 143.78
197.65 K, Crystal | 144.95
199.17 K, Crystal | 146.07
200.7 K, Crystal | 147.28
202.23 K, Crystal | 148.71
205.28 K, Crystal | 150.89
206.8 K, Crystal | 152.02
208.31 K, Crystal | 152.99
209.83 K, Crystal | 154.47
211.34 K, Crystal | 155.33
212.86 K, Crystal | 156.65
214.37 K, Crystal | 157.99
215.88 K, Crystal | 159.85
217.38 K, Crystal | 161.46
218.88 K, Crystal | 163.87
220.38 K, Crystal | 167.18
228.19 K, Liquid | 213.96
229.69 K, Liquid | 214.76
231.15 K, Liquid | 216.02
232.62 K, Liquid | 216.73
234.09 K, Liquid | 217.38
235.55 K, Liquid | 218.44
237.02 K, Liquid | 218.96
238.48 K, Liquid | 219.64
239.95 K, Liquid | 220.45
241.41 K, Liquid | 222.1
242.87 K, Liquid | 222.52
244.34 K, Liquid | 223.6
245.81 K, Liquid | 224.53
247.27 K, Liquid | 225.06
248.74 K, Liquid | 225.78
250.2 K, Liquid | 226.74
251.63 K, Liquid | 227.78
253.09 K, Liquid | 228.8
254.56 K, Liquid | 229.67
256.02 K, Liquid | 230.53
257.48 K, Liquid | 231.41
258.94 K, Liquid | 232.48
260.41 K, Liquid | 233.18
261.87 K, Liquid | 234.01
263.33 K, Liquid | 235.14
264.79 K, Liquid | 236.35
266.25 K, Liquid | 237.17
267.71 K, Liquid | 238.18
269.18 K, Liquid | 238.96
270.64 K, Liquid | 240.09
272.1 K, Liquid | 240.99
273.56 K, Liquid | 242.19
274.98 K, Liquid | 242.56
276.44 K, Liquid | 243.82
277.9 K, Liquid | 244.9
279.36 K, Liquid | 245.49
280.82 K, Liquid | 246.39
282.28 K, Liquid | 247.77
283.74 K, Liquid | 248.37
285.2 K, Liquid | 249.48
286.65 K, Liquid | 250.83
288.11 K, Liquid | 251.75
289.57 K, Liquid | 252.24
291.03 K, Liquid | 253.03
292.48 K, Liquid | 254.46
293.94 K, Liquid | 255.49
295.4 K, Liquid | 256.65
296.85 K, Liquid | 257.72
298.28 K, Liquid | 258.45
299.74 K, Liquid | 259.79
301.19 K, Liquid | 260.37
302.65 K, Liquid | 261.81
304.1 K, Liquid | 262.96
305.56 K, Liquid | 263.59
307.02 K, Liquid | 264.26
308.47 K, Liquid | 265.38
309.93 K, Liquid | 266.44
311.38 K, Liquid | 267.77
312.84 K, Liquid | 268.68
314.29 K, Liquid | 268.95
315.75 K, Liquid | 271
317.21 K, Liquid | 271.58
318.66 K, Liquid | 272.26
320.12 K, Liquid | 273.19
321.55 K, Liquid | 274.59
323 K, Liquid | 275.5
324.46 K, Liquid | 276.62
325.92 K, Liquid | 277.16
327.37 K, Liquid | 278.45
328.83 K, Liquid | 279.65
330.29 K, Liquid | 280.77
331.75 K, Liquid | 281.88
332.28 K, Liquid | 282.18
333.21 K, Liquid | 282.65
333.65 K, Liquid | 283.08
334.66 K, Liquid | 283.89
335.01 K, Liquid | 284.12
336.12 K, Liquid | 284.89
336.37 K, Liquid | 285.08
337.58 K, Liquid | 285.8
337.72 K, Liquid | 286.15
339.07 K, Liquid | 287.35
340.41 K, Liquid | 288.22
341.76 K, Liquid | 289.11
342.95 K, Liquid | 290.27
344.28 K, Liquid | 291.29
345.62 K, Liquid | 292.19
346.95 K, Liquid | 292.96
348.28 K, Liquid | 294.44
349.61 K, Liquid | 295.79
350.93 K, Liquid | 296.76
352.25 K, Liquid | 297.68
353.57 K, Liquid | 298.69
354.88 K, Liquid | 299.75
356.19 K, Liquid | 300.53
357.5 K, Liquid | 301.48
358.78 K, Liquid | 302.8
360.08 K, Liquid | 303.82
361.37 K, Liquid | 304.5
362.66 K, Liquid | 305.46
363.76 K, Liquid | 305.56
365.04 K, Liquid | 306.42
366.32 K, Liquid | 307.62
367.59 K, Liquid | 308.68
368.87 K, Liquid | 309.55
370.13 K, Liquid | 310.5
371.4 K, Liquid | 311.2
372.65 K, Liquid | 312.25
373.9 K, Liquid | 313.52
